Measured values from patent EP1161438B1, “6-O-SUBSTITUTED MACROLIDES HAVING ANTIBACTERIAL ACTIVITY” (ABBOTT LABORATORIES, priority 1999, dated 2000).
Converted amounts (≈) assume the structure as drawn.

Tests used:
Assay in all cases: Agar dilution antibacterial MIC assay
Format in all cases: cell-based
[1] = test system: Nocardia Asteroides ATCC9970; details: organism code VV, BHI agar, 35-37 °C, 20 to 24 hours, unit assumed
Procedure: (§1) Representative compounds of the present invention were assayed in vitro for antibacterial activity as follows: Twelve petri dishes containing successive aqueous dilutions of the test compound mixed with 10 mL of sterilized Brain Heart Infusion (BHI) agar (Difco 0418-01-5) were prepared. Each plate was inoculated with 1:100 (or 1:10 for slow-growing strains, such as Micrococcus and Streptococcus) dilutions of up to 32 different microorganisms, using a Steers replicator block. […] In addition, a control plate, using BHI agar containing no test compound, was prepared and incubated at the beginning and end of each test.
(§2) An additional plate containing a compound having known susceptibility patterns for the organisms being tested and belonging to the same antibiotic class as the test compound was also prepared and incubated as a further control, as well as to provide test-to-test comparability.
(§3) After incubation, each plate was visually inspected. The minimum inhibitory concentration (MIC) was defined as the lowest concentration of drug yielding no growth, a slight haze, or sparsely isolated colonies on the inoculum spot as compared to the growth control.

[2] = test system: Staphylococcus aureus A5177; details: organism code BB, BHI agar, 35-37 °C, 20 to 24 hours, unit assumed
Procedure: as §1, §2, §3

[3] = test system: Staphylococcus aureus ATCC 6538P; details: organism code AA, BHI agar, 35-37 °C, 20 to 24 hours, unit assumed
Procedure: as §1, §2, §3

[4] = test system: Haemophilis Influenzae DILL AMP R; details: organism code WW, BHI agar, 35-37 °C, 20 to 24 hours, unit assumed
Procedure: as §1, §2, §3

[5] = test system: Micrococcus luteus ATCC 4698; details: organism code PP, BHI agar, 35-37 °C, 20 to 24 hours, unit assumed
Procedure: as §1, §2, §3

[6] = test system: Streptococcus Pneumonia 5979; details: organism code ZZ, BHI agar, 35-37 °C, 20 to 24 hours, unit assumed
Procedure: as §1, §2, §3

Escherichia coli SS = details: organism code RR, BHI agar, 35-37 °C, 20 to 24 hours, unit assumed
Procedure: as §1, §2, §3

[7] = test system: Streptococcus bovis A-5169; details: organism code JJ, BHI agar, 35-37 °C, 20 to 24 hours, unit assumed
Procedure: as §1, §2, §3

[8] = test system: Streptococcus pyogenes PIU 2548; details: organism code NN, BHI agar, 35-37 °C, 20 to 24 hours, unit assumed
Procedure: as §1, §2, §3

[9] = test system: Streptococcus Pneumonia 5649; details: organism code ZZA, BHI agar, 35-37 °C, 20 to 24 hours, unit assumed
Procedure: as §1, §2, §3

[10] = test system: Streptococcus Pneumonia ATCC6303; details: organism code XX, BHI agar, 35-37 °C, 20 to 24 hours, unit assumed
Procedure: as §1, §2, §3

Candida albicans CCH 442 = details: organism code TT, BHI agar, 35-37 °C, 20 to 24 hours, unit assumed
Procedure: as §1, §2, §3

[11] = test system: Streptococcus agalactiae CMX 508; details: organism code KK, BHI agar, 35-37 °C, 20 to 24 hours, unit assumed
Procedure: as §1, §2, §3

[12] = test system: Streptococcus pyogenes 930; details: organism code MM, BHI agar, 35-37 °C, 20 to 24 hours, unit assumed
Procedure: as §1, §2, §3

[13] = test system: Streptococcus pyogenes EES61; details: organism code LL, BHI agar, 35-37 °C, 20 to 24 hours, unit assumed
Procedure: as §1, §2, §3

[14] = test system: Staphylococcus aureus CMX 642A; details: organism code DD, BHI agar, 35-37 °C, 20 to 24 hours, unit assumed
Procedure: as §1, §2, §3

[15] = test system: Staphylococcus aureus A-5278; details: organism code CC, BHI agar, 35-37 °C, 20 to 24 hours, unit assumed
Procedure: as §1, §2, §3

[16] = test system: Staphylococcus epidermidis 3519; details: organism code HH, BHI agar, 35-37 °C, 20 to 24 hours, unit assumed
Procedure: as §1, §2, §3

Escherichia coli JUHL = details: organism code QQ, BHI agar, 35-37 °C, 20 to 24 hours, unit assumed
Procedure: as §1, §2, §3

[17] = test system: Streptococcus Pneumonia GYR 1171; details: organism code YY, BHI agar, 35-37 °C, 20 to 24 hours, unit assumed
Procedure: as §1, §2, §3

[18] = test system: Mycobacterium smegmatis ATCC 114; details: organism code UU, BHI agar, 35-37 °C, 20 to 24 hours, unit assumed
Procedure: as §1, §2, §3

[19] = test system: Staphylococcus aureus 1775; details: organism code GG, BHI agar, 35-37 °C, 20 to 24 hours, unit assumed
Procedure: as §1, §2, §3

[20] = test system: Staphylococcus aureus NCTC10649M; details: organism code EE, BHI agar, 35-37 °C, 20 to 24 hours, unit assumed
Procedure: as §1, §2, §3

[21] = test system: Micrococcus luteus ATCC 9341; details: organism code OO, BHI agar, 35-37 °C, 20 to 24 hours, unit assumed
Procedure: as §1, §2, §3

[22] = test system: Staphylococcus aureus CMX 553; details: organism code FF, BHI agar, 35-37 °C, 20 to 24 hours, unit assumed
Procedure: as §1, §2, §3

Escherichia coli DC-2 = details: organism code SS, BHI agar, 35-37 °C, 20 to 24 hours, unit assumed
Procedure: as §1, §2, §3

[23] = test system: Enterococcus faecium ATCC 8043; details: organism code II, BHI agar, 35-37 °C, 20 to 24 hours, unit assumed
Procedure: as §1, §2, §3

Molecule	MIC [1]	MIC [2]	MIC [3]	MIC [4]	MIC [5]	MIC [6]	MIC (Escherichia coli SS)	MIC [7]	MIC [8]	MIC [9]	MIC [10]	MIC (Candida albicans CCH 442)	MIC [11]	MIC [12]	MIC [13]	MIC [15]	MIC [16]	MIC (Escherichia coli JUHL)	MIC [17]	MIC [18]	also measured
CC[C@H]1OC(=O)[C@H](C)C(=O)[C@H](C)[C@@H](O[C@@H]2O[C@H](C)C[C@H](N(C)C)[C@H]2O)[C@](C)(OCC#Cc2ccc(-c3ccncc3)s2)C[C@@H](C)C(=O)[C@H](C)[C@H]2NC(=O)O[C@@]21C [Example 3, Compound of Formula I: R^b is H, L is -C(O)-, T is -NH-, R is-(CH2)-C≡C-(5-(4-pyridyl)-2-thienyl)]	0.01 µg/mL	0.05 µg/mL	0.05 µg/mL	2 µg/mL	0.05 µg/mL	2 µg/mL	0.2 µg/mL	≤ 0.05 µg/mL	0.1 µg/mL	0.125 µg/mL	≤ 0.004 µg/mL	> 100 µg/mL	≤ 0.05 µg/mL	6.2 µg/mL	≤ 0.05 µg/mL	> 100 µg/mL	> 100 µg/mL	100 µg/mL	≤ 0.004 µg/mL	0.039 µg/mL	MIC [14]: 0.1 µg/mL
CC[C@H]1OC(=O)[C@H](C)C(=O)[C@H](C)[C@@H](O[C@@H]2O[C@H](C)C[C@H](N(C)C)[C@H]2O)[C@](C)(OCC#Cc2ccc(-c3ccccn3)s2)C[C@@H](C)C(=O)[C@H](C)[C@H]2N(N)C(=O)O[C@]12C [Example 5, Compound of Formula I: R^b is H, L is -C(O)-, T is -N(W-R^d)-, W is -NH-, R^d is H, R is-(CH2)-C≡C-(5-(2-pyridyl)-2-thienyl)]	0.01 µg/mL	0.05 µg/mL	0.05 µg/mL	2 µg/mL	0.1 µg/mL	2 µg/mL	0.2 µg/mL	≤ 0.005 µg/mL	0.39 µg/mL	0.25 µg/mL	0.015 µg/mL	> 100 µg/mL	≤ 0.005 µg/mL	50 µg/mL	0.01 µg/mL	> 100 µg/mL	0.1 µg/mL	25 µg/mL	0.015 µg/mL	1.56 µg/mL	MIC [19]: > 100 µg/mL; MIC [20]: 0.1 µg/mL
Compound of Formula II: R^b is H, R is -(CH2)-C≡C-(5-(2-pyridyl)-2-thienyl) [Example 4]	0.02 µg/mL	0.1 µg/mL	0.05 µg/mL	4 µg/mL	0.2 µg/mL	4 µg/mL	0.39 µg/mL	0.01 µg/mL	0.2 µg/mL	0.25 µg/mL	≤ 0.004 µg/mL	> 100 µg/mL	0.05 µg/mL	6.2 µg/mL	0.02 µg/mL	> 100 µg/mL	0.1 µg/mL	25 µg/mL	≤ 0.004 µg/mL	0.2 µg/mL	MIC [19]: > 100 µg/mL; MIC [20]: 0.2 µg/mL
CC[C@H]1OC(=O)[C@H](C)[C@@H](O[C@H]2C[C@@](C)(OC)[C@@H](O)[C@H](C)O2)[C@H](C)[C@@H](O[C@@H]2O[C@H](C)C[C@H](N(C)C)[C@H]2O)[C@](C)(O)C[C@@H](C)C(=O)[C@H](C)[C@@H](O)[C@]1(C)O [Ery. A standard, Erythromycin A, reference compound]	0.1 µg/mL (≈ 0.136 µM)	3.1 µg/mL (≈ 4.22 µM)	0.2 µg/mL (≈ 0.273 µM)	4 µg/mL (≈ 5.45 µM)	0.2 µg/mL (≈ 0.273 µM)	–	0.78 µg/mL (≈ 1.06 µM)	0.02 µg/mL (≈ 0.0273 µM)	6.2 µg/mL (≈ 8.45 µM)	16 µg/mL (≈ 21.8 µM)	0.06 µg/mL (≈ 0.0818 µM)	> 100 µg/mL	0.05 µg/mL (≈ 0.0681 µM)	> 100 µg/mL	0.05 µg/mL (≈ 0.0681 µM)	> 100 µg/mL	0.39 µg/mL (≈ 0.531 µM)	> 100 µg/mL	0.06 µg/mL (≈ 0.0818 µM)	3.1 µg/mL (≈ 4.22 µM)	MIC [19]: > 100 µg/mL; MIC [20]: 0.39 µg/mL (≈ 0.531 µM); MIC [14]: 0.39 µg/mL (≈ 0.531 µM); MIC [21]: 0.05 µg/mL (≈ 0.0681 µM); MIC [22]: 0.39 µg/mL (≈ 0.531 µM); MIC (Escherichia coli DC-2): > 100 µg/mL; MIC [23]: 0.05 µg/mL (≈ 0.0681 µM)
CC[C@H]1OC(=O)[C@H](C)C(=O)[C@H](C)[C@@H](O[C@@H]2O[C@H](C)C[C@H](N(C)C)[C@H]2O)[C@](C)(OCC#Cc2ccc(-c3cccnc3)s2)C[C@@H](C)C(=O)[C@H](C)[C@H]2NC(=O)O[C@@]21C [Example 2, Compound of Formula I: R^b is H, L is -C(O)-, T is -NH-, R is-(CH2)-C≡C-(5-(3-pyridyl)-2-thienyl)]	0.05 µg/mL	0.05 µg/mL	0.05 µg/mL	2 µg/mL	0.1 µg/mL	0.25 µg/mL	0.1 µg/mL	≤ 0.005 µg/mL	0.1 µg/mL	0.12 µg/mL	0.03 µg/mL	> 100 µg/mL	≤ 0.005 µg/mL	3.1 µg/mL	0.01 µg/mL	> 100 µg/mL	0.05 µg/mL	25 µg/mL	0.03 µg/mL	0.2 µg/mL	MIC [19]: > 100 µg/mL; MIC [20]: 0.05 µg/mL; MIC [14]: 0.05 µg/mL; MIC [21]: ≤ 0.005 µg/mL; MIC [22]: 0.05 µg/mL; MIC (Escherichia coli DC-2): 25 µg/mL; MIC [23]: 0.05 µg/mL
CC[C@H]1OC(=O)[C@H](C)C(=O)[C@H](C)[C@@H](O[C@@H]2O[C@H](C)C[C@H](N(C)C)[C@H]2O)[C@](C)(OCC#Cc2ccc(-c3ccccn3)s2)C[C@@H](C)C(=O)[C@H](C)[C@H]2NC(=O)O[C@@]21C [Example 1, Compound of Formula I: R^b is H, L is -C(O)-, T is -NH-, R is-(CH2)-C≡C-(5-(2-pyridyl)-2-thienyl)]	0.02 µg/mL	0.05 µg/mL	0.05 µg/mL	2 µg/mL	0.1 µg/mL	0.25 µg/mL	0.1 µg/mL	0.01 µg/mL	0.1 µg/mL	0.25 µg/mL	0.03 µg/mL	> 100 µg/mL	0.02 µg/mL	12.5 µg/mL	0.02 µg/mL	> 100 µg/mL	0.1 µg/mL	12.5 µg/mL	0.03 µg/mL	0.2 µg/mL	MIC [19]: > 100 µg/mL; MIC [20]: 0.1 µg/mL; MIC [14]: 0.05 µg/mL; MIC [21]: 0.02 µg/mL; MIC [22]: 0.05 µg/mL; MIC (Escherichia coli DC-2): 6.2 µg/mL; MIC [23]: 0.05 µg/mL
